Reference: patent US9145411B2, “Substituted amino-pyrimidine derivatives” (Asana Biosciences, LLC, priority 2012, dated 2015)

What was measured:
PI3Kα (wild-type) = target: T1, PI3Kα (wild-type) (Homo sapiens, UniProt P42336); experiment: PI3 Kinase TR-FRET assay, PI3Kα (wild-type); assay type: biochemical; conditions: wild-type P110/P85α, 10 μM ATP
T1 construct: made in house; host or cells: SF9 insect cells
Summary of the method: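 Sf9-expressed, Ni-purified p110/p85α (5 ng) with PIP2 was preincubated with compound for 60 min at room temperature in buffer with 40 mM MgCl2 and 5 mM DTT. The reaction ran 30 min at room temperature with 10 μM PIP2 and 10 μM ATP. The TR-FRET 665/615 nm ratio was used to derive IC50 from dose-response curves.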

mTOR kinase = target: T2, mTOR kinase (Homo sapiens, UniProt P42345); experiment: mTOR kinase TR-FRET assay; assay type: biochemical; conditions: 20 μM ATP
T2 construct: purchased Millipore, USA
Summary of the method: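 Test compounds were pre-incubated 60 min with mTOR (5 ng), then ULight-p70 S6K (Thr389) peptide (50 nM) and ATP (20 μM) were added in HEPES 50 mM pH 7.5, EGTA, MnCl2 3 mM. After 60 min at room temperature, EDTA stop and Eu-anti-phospho antibody TR-FRET (665/615 nm) gave IC50 from sigmoidal variable-slope fits.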

pAkt(T308) = experiment: In-cell Western assay, pAkt(T308), PC3 cells; assay type: cell-based; conditions: Homo sapiens, PC-3, 2 hours incubation
Description: (§1) Cells from human prostate cancer cell line PC3 (American Type Culture Collection (ATCC), Manassas, Va. 20108 USA) were seeded at an optimal density of 22,000 cell/well in 96-well plates containing Ham's F12K medium (90 μL) and incubated overnight. The compound dilutions were carried out in 100% DMSO followed by a dilution in the medium. Test compounds were added in serial dilutions to the wells and incubated for 2 hours. The cells were washed and fixed with 4% paraformaldehyde. After incubation at room temperature for 1 hour in the dark, blocking was done for 2 hours at room temperature. Primary antibodies for pAkt(S473) ([…] phosphorylated at serine 473), pAkt(T308) (Akt phosphorylated at threonine 308) and for pS6RP (S235/236) (phosphorylated at serine 235/236) (commercially available from Cell Signaling Technology®, whose protocol was followed for the in-cell western assay, were diluted to the required concentration and added to the corresponding wells followed by overnight incubation at 4° C. Eu-labeled rabbit (PE) (Perkin-Elmer USA catalog #AD0106) secondary antibody was added and incubated for 2 hours at room temperature. Delfia® enhancement solution (cat #1244-105, Perkin Elmer USA) was subsequently added to the plate before taking the reading at 615 nm with excitation wavelength of 340 nm, after which 0.5 μg/mL of Hoechst® 33258 dye (Catalog #86140-5, Sigma) was added to the plate and fluorescence emission was read at 460 nm with 355 nm excitation, to evaluate the correction factor. IC50 values were calculated using a sigmoidal dose-response curve fit in GraphPad Prism® v5 software.

pAkt(S473) = experiment: In-cell Western assay, pAkt(S473), PC3 cells; assay type: cell-based; conditions: Homo sapiens, PC-3, 2 hours incubation
Description: as §1

pS6RP (S235/236) = experiment: In-cell Western assay, pS6RP (S235/236), PC3 cells; assay type: cell-based; conditions: Homo sapiens, PC-3, 2 hours incubation
Description: as §1

PC3 cells = experiment: XTT assay for cell viability, PC3 cells; assay type: cell-based; conditions: Homo sapiens, PC-3; PC3 cell proliferation, 96 hours
Summary of the method: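 Log-phase PC3 cells (1000/well) were seeded for 24 h, then exposed to serially diluted compounds (DMSO dilutions) for 96 h. Viability was measured by XTT dye conversion at 37 °C, with absorbance read at 465 nm. EC50 was obtained from a sigmoidal dose-response fit.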

T1 sequence (P42336 whole entry, species assumed): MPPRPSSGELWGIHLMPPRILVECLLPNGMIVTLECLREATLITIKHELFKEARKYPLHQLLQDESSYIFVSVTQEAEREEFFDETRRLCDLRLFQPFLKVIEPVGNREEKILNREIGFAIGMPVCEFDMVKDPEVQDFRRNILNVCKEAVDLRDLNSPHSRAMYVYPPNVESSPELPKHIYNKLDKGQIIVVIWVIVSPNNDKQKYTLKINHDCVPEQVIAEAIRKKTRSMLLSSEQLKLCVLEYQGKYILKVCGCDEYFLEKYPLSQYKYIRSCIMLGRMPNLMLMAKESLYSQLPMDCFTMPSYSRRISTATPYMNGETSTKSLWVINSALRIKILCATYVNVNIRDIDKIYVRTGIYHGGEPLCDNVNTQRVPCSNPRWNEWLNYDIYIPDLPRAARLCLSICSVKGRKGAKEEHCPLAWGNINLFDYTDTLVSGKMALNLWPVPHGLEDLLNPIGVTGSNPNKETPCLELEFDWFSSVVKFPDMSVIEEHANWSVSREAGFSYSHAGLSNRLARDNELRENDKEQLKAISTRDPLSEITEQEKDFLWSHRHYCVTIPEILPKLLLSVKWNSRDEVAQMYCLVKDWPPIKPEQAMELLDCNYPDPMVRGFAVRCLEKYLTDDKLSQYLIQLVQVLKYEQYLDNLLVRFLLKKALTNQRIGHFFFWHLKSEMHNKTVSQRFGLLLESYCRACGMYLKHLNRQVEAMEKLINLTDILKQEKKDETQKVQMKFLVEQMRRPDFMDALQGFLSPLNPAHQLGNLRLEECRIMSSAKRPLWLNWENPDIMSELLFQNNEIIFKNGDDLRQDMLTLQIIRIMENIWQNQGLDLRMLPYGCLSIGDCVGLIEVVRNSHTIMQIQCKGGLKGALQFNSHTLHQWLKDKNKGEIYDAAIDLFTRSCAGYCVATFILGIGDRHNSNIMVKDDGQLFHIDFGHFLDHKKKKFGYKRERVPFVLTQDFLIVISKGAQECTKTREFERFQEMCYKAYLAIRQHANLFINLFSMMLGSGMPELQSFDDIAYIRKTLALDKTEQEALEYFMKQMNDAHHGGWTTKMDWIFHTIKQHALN
T1 sequence (P27986 whole entry partner, species assumed): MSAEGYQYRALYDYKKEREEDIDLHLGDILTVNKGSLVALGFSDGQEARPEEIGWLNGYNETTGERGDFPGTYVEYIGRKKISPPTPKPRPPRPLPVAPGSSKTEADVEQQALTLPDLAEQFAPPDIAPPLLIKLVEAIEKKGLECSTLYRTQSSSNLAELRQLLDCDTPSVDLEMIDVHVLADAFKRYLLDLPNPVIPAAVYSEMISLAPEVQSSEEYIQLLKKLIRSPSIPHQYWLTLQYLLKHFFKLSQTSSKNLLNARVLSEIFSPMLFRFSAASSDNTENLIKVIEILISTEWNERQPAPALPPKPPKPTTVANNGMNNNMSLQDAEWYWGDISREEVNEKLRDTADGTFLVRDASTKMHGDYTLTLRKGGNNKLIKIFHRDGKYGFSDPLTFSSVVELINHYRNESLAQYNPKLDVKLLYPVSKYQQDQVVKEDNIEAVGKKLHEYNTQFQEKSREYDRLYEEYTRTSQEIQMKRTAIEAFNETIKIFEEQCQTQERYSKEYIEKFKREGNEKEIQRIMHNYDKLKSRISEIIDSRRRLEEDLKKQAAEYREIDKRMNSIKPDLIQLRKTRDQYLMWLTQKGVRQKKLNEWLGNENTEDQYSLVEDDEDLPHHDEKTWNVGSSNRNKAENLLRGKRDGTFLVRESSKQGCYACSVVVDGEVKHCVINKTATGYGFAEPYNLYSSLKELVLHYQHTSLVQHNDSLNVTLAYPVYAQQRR
T2 sequence (P42345 1362-2549 limits assumed): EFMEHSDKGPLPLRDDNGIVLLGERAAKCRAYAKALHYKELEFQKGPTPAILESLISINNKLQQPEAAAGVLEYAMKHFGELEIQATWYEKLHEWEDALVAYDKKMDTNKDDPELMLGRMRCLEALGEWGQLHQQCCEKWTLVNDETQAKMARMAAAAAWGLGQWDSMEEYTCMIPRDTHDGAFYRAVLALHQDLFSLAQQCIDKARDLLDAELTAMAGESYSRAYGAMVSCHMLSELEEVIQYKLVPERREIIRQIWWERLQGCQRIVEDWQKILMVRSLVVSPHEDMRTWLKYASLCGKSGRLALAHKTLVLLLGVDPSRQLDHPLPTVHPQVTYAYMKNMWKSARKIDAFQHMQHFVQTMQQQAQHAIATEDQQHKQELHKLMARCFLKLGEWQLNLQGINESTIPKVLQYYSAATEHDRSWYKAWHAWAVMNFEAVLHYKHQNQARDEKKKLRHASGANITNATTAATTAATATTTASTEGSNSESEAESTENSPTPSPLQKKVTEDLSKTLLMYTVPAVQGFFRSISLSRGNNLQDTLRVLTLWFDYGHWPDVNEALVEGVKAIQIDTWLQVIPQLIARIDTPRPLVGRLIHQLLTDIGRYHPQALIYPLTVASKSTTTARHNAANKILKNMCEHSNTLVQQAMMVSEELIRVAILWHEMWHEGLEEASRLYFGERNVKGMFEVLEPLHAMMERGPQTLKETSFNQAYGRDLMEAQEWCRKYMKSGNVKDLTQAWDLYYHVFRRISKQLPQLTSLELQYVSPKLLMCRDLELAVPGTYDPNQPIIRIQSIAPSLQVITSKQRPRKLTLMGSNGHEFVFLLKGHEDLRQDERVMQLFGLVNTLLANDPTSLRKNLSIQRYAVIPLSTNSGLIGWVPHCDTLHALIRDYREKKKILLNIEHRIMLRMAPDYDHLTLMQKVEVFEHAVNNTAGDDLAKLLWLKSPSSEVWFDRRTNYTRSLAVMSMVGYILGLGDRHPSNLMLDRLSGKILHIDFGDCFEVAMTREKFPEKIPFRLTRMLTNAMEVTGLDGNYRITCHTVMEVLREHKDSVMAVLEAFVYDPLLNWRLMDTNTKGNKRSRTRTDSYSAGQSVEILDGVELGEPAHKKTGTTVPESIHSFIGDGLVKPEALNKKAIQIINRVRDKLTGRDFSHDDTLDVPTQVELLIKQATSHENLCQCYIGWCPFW

| Compound | IC50 (PI3Kα (wild-type)) | IC50 (mTOR kinase) | IC50 (pAkt(T308)) | IC50 (pAkt(S473)) | IC50 (pS6RP (S235/236)) | IC50 (PC3 cells) |
| --- | --- | --- | --- | --- | --- | --- |
| CS(=O)(=O)c1cccc(-c2ccc3c(N4CCOCC4)nc(-c4cnc(N)nc4)nc3c2)c1 [Example 1, 5-(7-(3-(Methylsulfonyl)phenyl)-4-morpholinoquinazolin-2-yl)pyrimidin-2-amine] | 50 to 200 nM | 50 to 200 nM | 501 to 5000 nM | 100 to 500 nM | 100 to 500 nM | 501 to 5000 nM |
| CN(C)CC(=O)Nc1cccc(-c2cnc3c(N4CCOCC4)nc(-c4cnc(N)nc4)nc3c2)c1 [Example 46, N-(3-(2-(2-amino-pyrimidin-5-yl)-4-morpholinopyrido[3,2-d]pyrimidin-7-yl)phenyl)-2-(dimethylamino)-acetamide] | < 50 nM | < 50 nM | – | – | 501 to 5000 nM | 100 to 500 nM |
| CC(=O)Nc1cccc(-c2cnc3c(N4CCOCC4)nc(-c4cnc(N)nc4)nc3c2)c1F [Example 52, N-(3-(2-(2-amino-pyrimidin-5-yl)-4-morpholinopyrido[3,2-d]pyrimidin-7-yl)-2-fluorophenyl)acetamide] | < 50 nM | < 50 nM | < 100 nM | < 100 nM | < 100 nM | < 100 nM |
| Nc1ncc(-c2nc(N3CCOCC3)c3ncc(-c4cccc(NS(=O)(=O)C5CC5)c4)cc3n2)cn1 [Example 81, N-(3-(2-(2-amino-pyrimidin-5-yl)-4-morpholinopyrido[3,2-d]pyrimidin-7-yl)-phenyl)cyclopropane-sulfonamide] | < 50 nM | < 50 nM | < 100 nM | – | – | 100 to 500 nM |
| Nc1ncc(-c2nc(N3CCOCC3)c3ncc(-c4ccc(NS(=O)(=O)C5CC5)cc4)cc3n2)cn1 [Example 82, N-(4-(2-(2-amino-pyrimidin-5-yl)-4-morpholinopyrido[3,2-d]-pyrimidin-7-yl)phenyl)-cyclopropanesulfonamide] | < 50 nM | < 50 nM | < 100 nM | – | – | 100 to 500 nM |
| Nc1ncc(-c2nc(N3CCOCC3)c3ncc(-c4cccc(NC(=O)CN5CCOCC5)c4)cc3n2)cn1 [Example 84, N-(3-(2-(2-aminopyrimidin-5-yl)-4-morpholinopyrido[3,2-d]pyrimidin-7-yl)phenyl)-2-morpholinoacetamide] | < 50 nM | < 50 nM | 100 to 500 nM | – | – | 100 to 500 nM |
| CN1CCN(CC(=O)Nc2ccc(F)c(-c3cnc4c(N5CCOCC5)nc(-c5cnc(N)nc5)nc4c3)c2)CC1 [Example 85, N-(3-(2-(2-aminopyrimidin-5-yl)-4-morpholinopyrido[3,2-d]pyrimidin-7-yl)-4-fluorophenyl)-2-(4-methylpiperazin-1-yl)-acetamide] | < 50 nM | < 50 nM | 100 to 500 nM | – | – | 100 to 500 nM |
| Nc1ncc(-c2nc(N3CCOCC3)c3ncc(-c4cc(NC(=O)C5CC5)ccc4F)cc3n2)cn1 [Example 95, N-(3-(2-(2-amino-pyrimidin-5-yl)-4-morpholinopyrido[3,2-d]-pyrimidin-7-yl)-4-fluorophenyl)cyclopropane-carboxamide] | < 50 nM | 50 to 200 nM | – | < 100 nM | 100 to 500 nM | 100 to 500 nM |
| CNC(=O)c1cccc(-c2cnc3c(N4CCOCC4)nc(-c4cnc(N)nc4)nc3c2)c1 [Example 103, 3-(2-(2-aminopyrimidin-5-yl)-4-morpholinopyrido[3,2-d]-pyrimidin-7-yl)-N-methylbenzamide] | < 50 nM | 50 to 200 nM | < 100 nM | – | – | < 100 nM |
| CCC(=O)Nc1cccc(-c2cnc3c(N4CCOCC4)nc(-c4cnc(N)nc4)nc3c2)c1 [Example 104, N-(3-(2-(2-amino-pyrimidin-5-yl)-4-morpholinopyrido[3,2-d]-pyrimidin-7-yl)-phenyl)propionamide] | < 50 nM | < 50 nM | < 100 nM | – | – | 100 to 500 nM |
| CC(C)C(=O)Nc1cccc(-c2cnc3c(N4CCOCC4)nc(-c4cnc(N)nc4)nc3c2)c1 [Example 105, N-(3-(2-(2-amino-pyrimidin-5-yl)-4-morpholinopyrido[3,2-d]-pyrimidin-7-yl)-phenyl)isobutyramide] | < 50 nM | < 50 nM | 501 to 5000 nM | – | – | 100 to 500 nM |
| CC(C)(O)c1cccc(-c2cnc3c(N4CCOCC4)nc(-c4cnc(N)nc4)nc3c2)c1 [Example 109, 2-(3-(2-(2-amino-pyrimidin-5-yl)-4-morpholinopyrido[3,2-d]pyrimidin-7-yl)-phenyl)propan-2-ol] | < 50 nM | 50 to 200 nM | 501 to 5000 nM | – | – | 100 to 500 nM |
| CC(C)(C)C(=O)Nc1cccc(-c2cnc3c(N4CCOCC4)nc(-c4cnc(N)nc4)nc3c2)c1 [Example 118, N-(3-(2-(2-amino-pyrimidin-5-yl)-4-morpholinopyrido[3,2-d]pyrimidin-7-yl)-phenyl)pivalamide] | < 50 nM | < 50 nM | – | 501 to 5000 nM | 501 to 5000 nM | 501 to 5000 nM |

The remaining lines, values ahead:

| IC50 (PI3Kα (wild-type)) | IC50 (mTOR kinase) | IC50 (pAkt(T308)) | IC50 (pAkt(S473)) | IC50 (pS6RP (S235/236)) | IC50 (PC3 cells) | Compound |
| --- | --- | --- | --- | --- | --- | --- |
| < 50 nM | 50 to 200 nM | – | – | 501 to 5000 nM | 501 to 5000 nM | CS(=O)(=O)c1cccc(-c2cc3nc(-c4cnc(N)nc4)nc(N4CCOCC4)c3cc2F)c1 [Example 2, 5-(6-Fluoro-7-(3-(methylsulfonyl)phenyl)-4-morpholinoquinazolin-2-yl)pyrimidin-2-amine] |
| < 50 nM | < 50 nM | – | – | 100 to 500 nM | 100 to 500 nM | CS(=O)(=O)c1cccc(-c2cnc3c(N4CCOCC4)nc(-c4cnc(N)nc4)nc3c2)c1 [Example 20, 5-(7-(3-(methyl-sulfonyl)phenyl)-4-morpholinopyrido[3,2-d]-pyrimidin-2-yl)pyrimidin-2-amine] |
| < 50 nM | < 50 nM | 100 to 500 nM | 501 to 5000 nM | 100 to 500 nM | < 100 nM | Cn1cc(-c2cnc3c(N4CCOCC4)nc(-c4cnc(N)nc4)nc3c2)cn1 [Example 22, 5-(7-(1-methyl-1H-pyrazol-4-yl)-4-morpholinopyrido[3,2-d]-pyrimidin-2-yl)pyrimidin-2-amine] |
| < 50 nM | 50 to 200 nM | – | 100 to 500 nM | 501 to 5000 nM | > 1000 nM | Nc1ncc(-c2nc(N3CCOCC3)c3ncc(-c4cncnc4)cc3n2)cn1 [Example 23, 5-(4-morpholino-7-(pyrimidin-5-yl)-pyrido[3,2-d]pyrimidin-2-yl)pyrimidin-2-amine] |
| < 50 nM | 50 to 200 nM | 100 to 500 nM | 501 to 5000 nM | 100 to 500 nM | 100 to 500 nM | Nc1ncc(-c2nc(N3CCOCC3)c3ncc(-c4cccnc4F)cc3n2)cn1 [Example 24, 5-(7-(2-fluoropyridin-3-yl)-4-morpholino-pyrido[3,2-d]pyrimidin-2-yl)pyrimidin-2-amine] |
| < 50 nM | < 50 nM | 501 to 5000 nM | – | 100 to 500 nM | < 100 nM | CC(O)C(=O)Nc1cccc(-c2cnc3c(N4CCOCC4)nc(-c4cnc(N)nc4)nc3c2)c1 (stereo not shown) [Example 45, N-(3-(2-(2-amino-pyrimidin-5-yl)-4-morpholinopyrido[3,2-d]pyrimidin-7-yl)phenyl)-2-hydroxypropanamide] |
